According to paper PMC9070634 (Cell, 2021):

Tests used:
BcPycTIR [1] = molecular target: T1, BcPycTIR (Burkholderia cepacia, UniProt A0A0J5WTU0); test: HPLC of NAD+ cleavage; type: biochemical; settings: 500 uM NAD+, 500 nM protein, 250 nM cUMP as activator, 25 C, 1 h
T1 sequence (A0A0J5WTU0 1-303): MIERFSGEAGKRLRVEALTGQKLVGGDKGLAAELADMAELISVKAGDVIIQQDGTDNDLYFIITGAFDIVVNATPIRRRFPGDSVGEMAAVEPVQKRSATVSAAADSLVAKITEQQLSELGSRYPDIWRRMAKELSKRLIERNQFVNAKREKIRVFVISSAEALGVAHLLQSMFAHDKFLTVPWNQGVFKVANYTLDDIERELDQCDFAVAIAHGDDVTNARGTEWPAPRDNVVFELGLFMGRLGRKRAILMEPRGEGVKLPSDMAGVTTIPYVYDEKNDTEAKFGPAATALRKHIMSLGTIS

PaPycC = PaPycC (Pseudomonas aeruginosa, UniProt P0DV40); test: thin-layer chromatography with alpha-32P-UTP; type: biochemical; settings: labelled compound (trace); 10 mM MgCl2, 1 mM MnCl2, pH 8.5, 37 C
Chain of PaPycC (P0DV40 whole entry): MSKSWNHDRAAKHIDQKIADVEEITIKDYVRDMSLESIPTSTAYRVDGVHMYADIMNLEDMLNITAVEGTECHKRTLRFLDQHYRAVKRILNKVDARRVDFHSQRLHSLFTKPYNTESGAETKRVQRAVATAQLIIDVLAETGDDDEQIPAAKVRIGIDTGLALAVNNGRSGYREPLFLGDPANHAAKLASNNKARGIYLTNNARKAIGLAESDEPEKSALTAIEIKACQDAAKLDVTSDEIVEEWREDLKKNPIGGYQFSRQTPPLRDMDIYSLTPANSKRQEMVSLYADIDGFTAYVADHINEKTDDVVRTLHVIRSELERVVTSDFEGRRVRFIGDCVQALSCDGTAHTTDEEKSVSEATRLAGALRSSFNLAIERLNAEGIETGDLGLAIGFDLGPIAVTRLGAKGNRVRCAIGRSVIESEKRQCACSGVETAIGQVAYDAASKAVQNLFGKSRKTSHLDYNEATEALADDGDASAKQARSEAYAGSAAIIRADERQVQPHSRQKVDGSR

BcPycC = molecular target: T2, BcPycC (Burkholderia cepacia, UniProt A0A0J5ZXG5); test: HPLC; type: biochemical; settings: 10 mM MgCl2, 1 mM MnCl2, 37 C
T2 sequence (A0A0J5ZXG5 1-229 limits assumed): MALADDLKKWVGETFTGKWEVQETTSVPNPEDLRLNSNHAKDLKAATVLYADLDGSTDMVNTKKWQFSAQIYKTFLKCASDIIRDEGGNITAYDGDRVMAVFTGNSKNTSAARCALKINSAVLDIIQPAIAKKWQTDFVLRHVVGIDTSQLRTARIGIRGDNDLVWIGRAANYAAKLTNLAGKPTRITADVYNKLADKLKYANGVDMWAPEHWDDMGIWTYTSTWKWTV

BcPycTIR [2] = molecular target: T1, BcPycTIR; test: fluorescence plate reader, initial rates; type: biochemical; settings: 500 uM substrate, 1 uM protein, cUMP as activator, pH 7.5, 100 mM KCl
crystal structure = molecular target: the molecule itself; test: crystal structure
[3] = molecular target: the molecule itself; test: negative stain electron microscopy

NC(=O)c1ccc[n+]([C@@H]2O[C@H](COP(=O)(O)OP(=O)(O)OC[C@H]3O[C@@H](n4cnc5c(N)ncnc54)[C@H](O)[C@@H]3O)[C@@H](O)[C@H]2O)c1 [NAD^+]
HPLC of NAD+ cleavage (BcPycTIR [1]): Incubation of BcPycTIR with cUMP triggered robust NADase activity

O=c1ccn([C@@H]2O[C@H](COP(=O)(O)OP(=O)(O)OP(=O)(O)O)[C@@H](O)[C@H]2O)c(=O)[nH]1 [UTP]
thin-layer chromatography with alpha-32P-UTP (PaPycC): demonstrated that PaPycC is an active uridylate cyclase

O=c1ccn([C@@H]2O[C@@H]3COP(=O)(O)O[C@H]3[C@H]2O)c(=O)[nH]1 [cUMP]
HPLC; MSMS against standard (BcPycC): MSMS fragmentation spectra of a cUMP standard (bottom) and the BcPycC cyclase product (top)

NC(=O)c1ccc[n+]([C@@H]2O[C@H](COP(=O)(O)OP(=O)(O)OC[C@H]3O[C@@H](n4cnc5c4ncn4ccnc54)[C@H](O)[C@@H]3O)[C@@H](O)[C@H]2O)c1 [ε-NAD^+]
fluorescence plate reader, initial rates (BcPycTIR [2]): NAD^+ cleavage activity of BcPycTIR using the fluorescent substrate ε-NAD^+

B1: clade B uridylate cyclase from Burkholderia cepacia LK29 (BcPycC) (enzyme)
chain: ALADDLKKWVGETFTGKWEVQETTSVPNPEDLRLNSNHAKDLKAATVLYADLDGSTDMVNTKKWQFSAQIYKTFLKCASDIIRDEGGNITAYDGDRVMAVFTGNSKNTSAARCALKINSAVLDIIQPAIAKKWQTDFVLRHVVGIDTSQLRTARIGIRGDNDLVWIGRAANYAAKLTNLAGKPTRITADVYNKLADKLKYANGVDMWAPEHWDDMGIWTYTSTWKWTV
binding result (crystal structure): binds

B2: TIR-domain effector protein from Burkholderia cepacia LK29 (BcPycTIR) (enzyme)
chain: MIERFSGEAGKRLRVEALTGQKLVGGDKGLAAELADMAELISVKAGDVIIQQDGTDNDLYFIITGAFDIVVNATPIRRRFPGDSVGEMAAVEPVQKRSATVSAAADSLVAKITEQQLSELGSRYPDIWRRMAKELSKRLIERNQFVNAKREKIRVFVISSAEALGVAHLLQSMFAHDKFLTVPWNQGVFKVANYTLDDIERELDQCDFAVAIAHGDDVTNARGTEWPAPRDNVVFELGLFMGRLGRKRAILMEPRGEGVKLPSDMAGVTTIPYVYDEKNDTEAKFGPAATALRKHIMSLGTIS
binding result [3]: binds
